Laboratory results from patent US20090326035A1, “Compositions and Methods for Preventing or Reducing Postoperative Ileus and Gastric Stasis in Mammals” (priority 2006, published 2009).

Test system: Male Sprague Dawley rats
Test: Charcoal transit model of postoperative ileus (POI) after cecum manipulation
Format: in vivo, rat
Conditions: for Prevention of POI (in words): delivered via gel to the manipulated intestines; for % GI Transfer: 4 h after oral charcoal meal; for Dose response of the effect on POI (in words): low versus high dose gel formulations
Description: The charcoal transit model is an acceptable and established model to study the effects of abdominal surgery on intestinal motility. We followed the procedure as described by De Winter et al. (1997) (Reference: Effect of adrenergic and nitrergic blockade on experimental ileus in rats. British Journal of Pharmacology (1997) 120, 464-468. Benedicte Y. De Winter, Guy E. Boeckxstaens, Joris G. De Man, Tom G. Moreels, Arnold G. Herman & Paul A. Pelckmans). The model simulates the abdominal procedure in human and tests for gastric emptying and intestinal motility by the transfer of a charcoal meal fed to the animals.
Male Sprague Dawley rats, weighing 250-275 g (8 in group) were anesthetized with a xylazine/ketamine cocktail, injected IM, the abdomen was shaved and disinfected with alcohol and Betadyne. A 2.5 cm incision was made from the xyphoid process caudally. The intestinal contents was exteriorized onto wet gauze. The cecum was manipulated gently for 1 minute. The abdominal contents were replaced, the treatment was applied, and the body wall was closed with 4-0 PDS for the fascia and muscle layers. The skin was closed with wound clips. In addition, two control groups were tested as well: incision only and naïve. Treatment groups included two control groups, surgery (incision only) and naïve, and two treatment groups, a high and low dose of Diclofenac, as well as 3 wt % Na-CMC gel alone. The high and low dose of Diclofenac, as well as the 3 wt % Na-CMC gel were prepared as described above. 8 rats were included in each group with a total of 40 rats.
The rats were treated with an oral solution of charcoal (10%) in acacia gum (2%). Four hours following oral administration rats were euthanized with Euthasole. The intestines were exteriorized and the distance traveled by the charcoal meal was measured as well as the full length of the intestines (from the pylorus through the anus). Results are expressed as percent of distance traveled relative to the full length of the intestines.
Male Sprague Dawley rats, weighing 250-275 g (8 in group) were anesthetized with a xylazine/ketamine cocktail, injected IM, the abdomen was shaved and disinfected with alcohol and Betadyne. A 2.5 cm incision was made from the xyphoid process caudally. The intestinal contents was exteriorized onto wet gauze. The cecum was manipulated gently for 1 minute. The abdominal contents were replaced, the treatment was applied, and the body wall was closed with 4-0 PDS for the fascia and muscle layers. The skin was closed with wound clips. In addition, two control groups were tested as well: incision only and naïve. Treatment groups included two control groups, surgery (incision only) and naïve, and 4 treatment groups, a high and low dose of Diclofenac, a high and a low dose of Naproxen, as well as 3 wt % Na-CMC gel alone. The high and low dose of Diclofenac, as well as the 3 wt % Na-CMC gel were prepared as described above. 8 rats were included in each group with a total of 56 rats.

[1] = Example 2, both doses (0.3 and 2.0 mg) in gel, compared with non-treated and gel-alone animals
[2] = Example 2, high dose 2.0 mg in 3 wt % Na-CMC gel applied after intestinal manipulation
[3] = Example 2, low dose 0.3 mg in 3 wt % Na-CMC gel applied after intestinal manipulation

Structure (SMILES) | Prevention of POI (in words) (Example 1, high dose, listed as Diclofenac sodium) | Prevention of POI (in words) (Example 1, high dose, listed as diclofenac) | % GI Transfer (Example 1, listed as 'Diclofenac-Na high', dose printed 0.3 mg, in 3 wt % Na-CMC gel applied after intestinal manipulation, distance traveled relative to full intestine length) [%] | % GI Transfer (Example 1, listed as 'Diclofenac-Na low', dose printed 1.0 mg, in 3 wt % Na-CMC gel applied after intestinal manipulation, distance traveled relative to full intestine length) [%] | Prevention of POI (in words) (Example 1, low dose) | Dose response of the effect on POI (in words) | Alleviation of POI (in words) [1] | % GI Transfer [2] [%] | % GI Transfer [3] [%] | Alleviation of POI (in words) (Example 2, high dose (2.0 mg) in gel)
O=C(O)Cc1ccccc1Nc1c(Cl)cccc1Cl [Diclofenac-Na, Diclofenac sodium] | complete prevention | completely alleviated the POI | 73.58 | 95.05 | significant prevention of POI | dose related manner |  |  |  | 
O=C(c1ccccc1)c1ccc2n1CCC2C(=O)O (stereo not drawn) [Ketorolac] |  |  |  |  |  | dose response was not observed | significant alleviation of the POI | 69.84 | 70.99 | 
COc1ccc2cc([C@H](C)C(=O)O)ccc2c1 [Naproxen] |  |  |  |  |  | dose related prevention of the POI | both doses improved on the gastric emptying and intestinal transfer | 65.34 | 56.9 | not completely curative
